Source: patent US20230189808A1, “SELECTIVE HERBICIDES BASED ON SUBSTITUTED ISOXAZOLIN CARBOXAMIDES AND FURILAZOLE” (Bayer Aktiengesellschaft, priority 2020, published 2023)

Key:
[1] = test system: ZEAMA Sileno; assay: Tank-mix post-emergence crop damage and safener test in greenhouse; assay type: in vivo, maize; conditions: final assessment
Protocol: Tank-Mix; Post-Emergence • A) Method Description
Seeds of crops (spring wheat, TRZAS; spring barley, HORVS; maize, ZEAMA) were placed in sandy loam soil in peat pots, covered with soil and cultivated in a greenhouse under good growth conditions. Two to three weeks after sowing, the test plants were treated at the 1 to 3-leaf stage. The herbicide/safener active compound combinations according to the invention, formulated as wettable powders or emulsion concentrates, and, in parallel tests, the correspondingly formulated individual active compounds were sprayed onto the green parts of the plants in various dosages using an amount of water of 300 1/ha (converted).
The pots were returned under good growing conditions in a glasshouse and a visual assessment of herbicidal effects was made at intervals from 1 to 3 weeks after herbicide application (DAT=days after treatment). Assessment was on a percentage basis in comparison with untreated control plants (0%=no injury, 100%=complete kill).
(§1) Plant Species, Variety: ZEAMA Sileno, Safener (SAF): Furilazole

[2] = test system: ZEAMA Sileno; assay: Safener seed treatment with pre-emergence herbicide application, crop damage test in greenhouse; assay type: in vivo, maize; parameters: key to Reduction [Difference]: difference in % crop damage (visual score vs untreated control); conditions: for Reduction [%] / Reduction [Difference]: furilazole 0.25 g a.i./kg seed; for HER effect + SAF [%] / HER effect [%]: pre-emergence; for HER effect + SAF [%]: furilazole seed treatment 0.25 g a.i./kg seed; for HER effect [%]: % crop damage
Protocol: Seed Treatment; Pre-Emergence • A) Method Description
For the safener seed treatment, sufficient seeds of the respective crops (spring wheat, TRZAS; spring barley, HORVS; maize, ZEAMA) were weighed into screw top glass bottles approximately twice the volume of the seeds.
The specified safeners, formulated as wettable powder (WP) were weighed out so that the specified rates (g a·i·/kg seed) would be obtained, dissolved in water (1 ml water per 10 g of seeds), and added to the seeds to produce a slurry.
The bottles were capped and then placed in an overhead shaker (set at medium speed for ca. 60 minutes) so that the seeds were evenly coated with the slurry. The bottles were uncapped and the seeds were either placed on paper and dried for an interval of 3-4 hours prior to sowing, or directly sown. Seeds were placed in sandy loam soil in pots of a diameter of 7-8 cm, and covered with soil.
Pre-emergence application of the specified herbicides was done subsequently, on two sets of plants:
a) seed treatment with safener, as described above
The herbicides were formulated as WP and was sprayed onto the soil surface as an aqueous suspension at an equivalent water application rate of 300 1/ha.
After application, the test plants were kept in the greenhouse under good growth conditions. At intervals up to 4 weeks after application (=28 days after treatment; DAT), % crop damage observed on the treated plants was scored visually in comparison to control plants that had not received any safener or herbicide treatment.
Values in the table below are mean values of at least 2 replicates.
as §1

[3] = herbicide alone 40 g a.i./ha, 26 DAT
[4] = herbicide alone 80 g a.i./ha, 14 DAT
[5] = herbicide alone 80 g a.i./ha, 26 DAT
[6] = herbicide alone 40 g a.i./ha, 14 DAT

Structure (SMILES)	Reduction [%] ([1]; Reduction [Difference]*100/herbicide damage without safener, herbicide 32 g a.i./ha, furilazole 100 g a.i./ha)	Reduction [Difference] ([1]; herbicide damage without safener minus with safener, herbicide 32 g a.i./ha, furilazole 100 g a.i./ha)	HER effect + SAF [%] ([1]; post-emergence tank-mix, herbicide 32 g a.i./ha + furilazole 100 g a.i./ha)	HER effect [%] ([1]; post-emergence, herbicide alone 32 g a.i./ha, visual crop injury (0%=no injury, 100%=complete kill))	Reduction [%] ([2]; herbicide 40 g a.i./ha, 26 DAT)	Reduction [Difference] ([2]; herbicide 40 g a.i./ha, 26 DAT)	Reduction [%] ([2]; herbicide 80 g a.i./ha, 14 DAT)	Reduction [Difference] ([2]; herbicide 80 g a.i./ha, 14 DAT)	Reduction [%] ([2]; herbicide 80 g a.i./ha, 26 DAT)	Reduction [Difference] ([2]; herbicide 80 g a.i./ha, 26 DAT)	HER effect + SAF [%] ([2]; herbicide 40 g a.i./ha, 26 DAT)	HER effect + SAF [%] ([2]; herbicide 80 g a.i./ha, 14 DAT)	HER effect + SAF [%] ([2]; herbicide 80 g a.i./ha, 26 DAT)	HER effect [%] [2, 3] [%]	HER effect [%] [2, 4] [%]	HER effect [%] [2, 5] [%]	Reduction [%] ([2]; herbicide 40 g a.i./ha, 14 DAT)	Reduction [Difference] ([2]; herbicide 40 g a.i./ha, 14 DAT)	HER effect + SAF [%] ([2]; herbicide 40 g a.i./ha, 14 DAT)	HER effect [%] [2, 6] [%]
C=CC1(C(=O)NC2C=CC(C(=O)OC)C2)CC(c2cc(F)cc(F)c2)=NO1 (centres unmarked) [Example 1.26]	61	57	37	94	80	40	79	55	86	60	10	15	10	50	70	70				
COC(=O)C1=C[C@@H](NC(=O)[C@@]2(C)CC(c3cc(F)cc(F)c3)=NO2)CC1 [Example 1.63]					100	25					0			25			50	30	30	60
C=CC1(C(=O)NC2COC(C(=O)OC)C2)CC(c2cc(F)cc(F)c2)=NO1 (mixture of isomers) [Example 1.68]					79	75	38	37	40	40	20	60	60	95	97	100	73	68	25	93
COCCOC(=O)C1C=CC(NC(=O)C2(C)CC(c3cc(Cl)cc(C#N)c3)=NO2)C1 (centres unmarked) [Example 1.5]							33	20	67	30		40	15		60	45				
CN(C)C(=O)SCCOC(=O)C1C=CC(NC(=O)C2(C)CC(c3cc(F)cc(F)c3)=NO2)C1 (centres unmarked) [Example 1.29]							50	30				30			60					
C=CC1(C(=O)NC2COC(C(=O)OC)C2)CC(c2cc(F)cc(F)c2)=NO1 (centres unmarked) [Example 1.70]					24	20	58	55	63	60	65	40	35	85	95	95	44	35	45	80
CSCCOC(=O)C1C=CC(NC(=O)C2(C(F)(F)F)CC(c3cc(F)cc(F)c3)=NO2)C1 (centres unmarked) [Example 1.7]																	34	28	55	83
CC1(C(=O)NC2C=CC(C(=O)O)C2)CC(c2cc(F)cc(F)c2)=NO1 (centres unmarked) [Example 1.36]							40	33				50			83					
C=CC1(C(=O)NC2C=C(C(=O)OC)OC2)CC(c2cc(C)cc(C)c2)=NO1 (centres unmarked) [Example 1.90]							80	20	100	30		5	0		25	30				
COCCOC(=O)C1C=CC(NC(=O)C2(C(F)(F)F)CC(c3cc(F)cc(C#N)c3)=NO2)C1 (centres unmarked) [Example 1.2]							100	45				0			45		63	25	15	40
C=CC1(C(=O)NC2COC(C(=O)OC)C2)CC(c2cc(F)cc(F)c2)=NO1 (centres unmarked) [Example 1.69]																	37	35	60	95
COC(=O)[C@H]1OCC[C@@H]1NC(=O)[C@@]1(C)CC(c2cc(F)cc(F)c2)=NO1 [Example 1.92]					86	60					10			70			100	75	0	75
